Measurements published in patent US10377770B2 (Novartis AG, priority 2015, dated 2019).

Each compound was assayed against C-Raf FL (full length CRAF with Y340E and Y341E activating mutations, co-expressed with h14-3-3 zeta) (Homo sapiens (Human), UniProt P04049, Y340E/Y341E) (assay: In vitro Raf activity determination, AlphaScreen p-MEK readout, c-Raf (C-Raf FL)). Settings: c-Raf approximately 4 nM, ATP 1 μM, pre-incubation 60 minutes, reaction 1 hour.
Assay type: biochemical
Procedure, shortened: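 Full-length C-Raf (~4 nM) pre-incubated 60 min at room temperature with compound and kinase-dead biotinylated MEK1 (~10 nM) in Tris pH 7.5, 15 mM MgCl2, BSA, DTT. Reaction started with 1 μM ATP and run 1 h at room temperature. Phospho-MEK detected by AlphaScreen with anti-p-MEK antibody.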

C-Raf FL (full length CRAF with Y340E and Y341E activating mutations, co-expressed with h14-3-3 zeta), sequence (P04049 whole entry Y340E/Y341E): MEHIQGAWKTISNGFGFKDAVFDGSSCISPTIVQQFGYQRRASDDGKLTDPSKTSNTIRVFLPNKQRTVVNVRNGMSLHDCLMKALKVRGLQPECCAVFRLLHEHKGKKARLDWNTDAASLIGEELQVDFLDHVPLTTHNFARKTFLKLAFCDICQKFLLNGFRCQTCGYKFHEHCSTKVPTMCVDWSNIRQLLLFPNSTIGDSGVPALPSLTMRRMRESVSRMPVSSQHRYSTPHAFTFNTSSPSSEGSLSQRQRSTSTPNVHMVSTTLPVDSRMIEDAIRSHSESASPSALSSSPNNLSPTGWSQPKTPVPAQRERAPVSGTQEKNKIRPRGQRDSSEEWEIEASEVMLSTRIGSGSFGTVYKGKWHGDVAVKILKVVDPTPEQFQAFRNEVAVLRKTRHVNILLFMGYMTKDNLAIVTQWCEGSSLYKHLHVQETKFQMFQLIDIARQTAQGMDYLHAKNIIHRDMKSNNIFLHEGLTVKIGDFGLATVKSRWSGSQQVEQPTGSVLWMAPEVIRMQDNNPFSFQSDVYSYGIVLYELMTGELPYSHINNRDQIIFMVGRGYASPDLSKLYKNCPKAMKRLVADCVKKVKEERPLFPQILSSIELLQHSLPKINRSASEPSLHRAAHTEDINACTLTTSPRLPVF
C-Raf FL (full length CRAF with Y340E and Y341E activating mutations, co-expressed with h14-3-3 zeta), sequence (P63104 whole entry partner): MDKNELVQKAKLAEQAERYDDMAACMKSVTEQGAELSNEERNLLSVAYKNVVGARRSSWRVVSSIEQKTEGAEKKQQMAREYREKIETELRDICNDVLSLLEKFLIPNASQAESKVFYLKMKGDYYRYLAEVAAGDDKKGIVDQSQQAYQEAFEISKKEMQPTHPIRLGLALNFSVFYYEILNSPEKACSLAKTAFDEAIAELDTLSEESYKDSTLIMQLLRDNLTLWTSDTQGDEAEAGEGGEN

Compound | IC50 [nM]
Cc1ccc(NC(=O)c2ccnc(C(F)(F)F)c2)cc1-c1cnc2c(c1)N1CCOCC1C(=O)N2 (racemic) [Example 112, rac-N-(4-Methyl-3-(5-oxo-1,2,4,4a,5,6-hexahydropyrido[2′,3′:5,6]pyrazino[2,1-c][1,4]oxazin-9-yl)phenyl)-2-(trifluoromethyl)isonicotinamide] | < 0.0017
CCN1C(=O)C2COCCN2c2cc(-c3cc(NC(=O)c4ccnc(C(F)(F)F)c4)ccc3C)cnc21 (racemic) [Example 113, rac-N-(3-(6-Ethyl-5-oxo-1,2,4,4a,5,6-hexahydropyrido[2′,3′:5,6]pyrazino[2,1-c][1,4]oxazin-9-yl)-4-methylphenyl)-2-(trifluoromethyl)isonicotinamide] | 0.0084
Cc1ccc(NC(=O)c2ccnc(C(C)(F)F)c2)cc1-c1cnc2c(c1)N1CCOC[C@@H]1[C@H](CO)C2 (racemic) [Example 116, rac-trans-2-(1,1-Difluoroethyl)-N-(3-(5-(hydroxymethyl)-1,2,4,4a,5,6-hexahydro-[1,4]oxazino[4,3-a][1,5]naphthyridin-9-yl)-4-methylphenyl)isonicotinamide] | < 0.0017
Cc1ncc(NC(=O)c2cccc(C(F)(F)F)c2)cc1-c1cnc2c(c1)N1CCOC[C@@H]1[C@H](CO)C2 (racemic) [Example 119, rac-trans-N-(5-(5-(Hydroxymethyl)-1,2,4,4a,5,6-hexahydro-[1,4]oxazino[4,3-a][1,5]naphthyridin-9-yl)-6-methylpyridin-3-yl)-3-(trifluoromethyl)benzamide] | 0.01
Cc1ccc(NC(=O)c2ccnc(C(F)(F)F)c2)cc1-c1cnc2c(c1)N1CCOCC1C(CO)C2 (racemic) [Example 123, rac-cis-N-(3-(5-(hydroxymethyl)-1,2,4,4a,5,6-hexahydro-[1,4]oxazino[4,3-a][1,5]naphthyridin-9-yl)-4-methylphenyl)-2-(trifluoromethyl)isonicotinamide] | 0.0052
Cc1ccc(NC(=O)c2ccnc(C(C)(F)F)c2)cc1-c1cnc2c(c1)N1CCOCC1CC(=O)N2 (racemic) [Example 124, rac-2-(1,1-Difluoroethyl)-N-(4-methyl-3-(6-oxo-1,2,4a,5,6,7-hexahydro-4H-[1,4]oxazino[4,3-d]pyrido[2,3-b][1,4]diazepin-10-yl)phenyl)isonicotinamide] | 0.0094
CCN1C(=O)CC2COCCN2c2cc(-c3cc(NC(=O)c4ccnc(C(C)(F)F)c4)ccc3C)cnc21 (racemic) [Example 125, rac-2-(1,1-Difluoroethyl)-N-(3-(7-ethyl-6-oxo-1,2,4a,5,6,7-hexahydro-4H-[1,4]oxazino[4,3-d]pyrido[2,3-b][1,4]diazepin-10-yl)-4-methylphenyl)isonicotinamide] | 0.034
CCN1C(=O)CC2COCCN2c2cc(-c3cc(NC(=O)c4ccnc(C(F)(F)F)c4)ccc3C)cnc21 (racemic) [Example 128, rac-N-(3-(7-Ethyl-6-oxo-1,2,4a,5,6,7-hexahydro-4H-[1,4]oxazino[4,3-d]pyrido[2,3-b][1,4]diazepin-10-yl)-4-methylphenyl)-2-(trifluoromethyl)isonicotinamide] | 0.023
CCN1C(=O)CC2COCCN2c2cc(-c3cc(NC(=O)c4cccc(C(F)(F)F)c4)cnc3C)cnc21 (racemic) [Example 131, rac-N-(5-(7-Ethyl-6-oxo-1,2,4a,5,6,7-hexahydro-4H-[1,4]oxazino[4,3-d]pyrido[2,3-b][1,4]diazepin-10-yl)-6-methylpyridin-3-yl)-3-(trifluoromethyl)benzamide] | 0.06
CCN1C(=O)C2COCCN2c2cc(-c3cc(NC(=O)c4ccnc(C(F)(F)F)c4)ccc3C)nnc21 (racemic) [Example 132, rac-N-(3-(5-Ethyl-6-oxo-5,6,6a,7,9,10-hexahydropyridazino[3′,4′:5,6]pyrazino[2,1-c][1,4]oxazin-2-yl)-4-methylphenyl)-2-(trifluoromethyl)isonicotinamide] | 0.14
Cc1ccc(NC(=O)c2ccnc(C(C)(F)F)c2)cc1-c1cc2c(nn1)OCC1COCCN21 (racemic) [Example 135, rac-2-(1,1-Difluoroethyl)-N-(4-methyl-3-(6a,7,9,10-tetrahydro-6H-[1,4]oxazino[4,3-d]pyridazino[3,4-b][1,4]oxazin-2-yl)phenyl)isonicotinamide] | 0.019
Cc1ccc(NC(=O)c2ccnc(C(C)(F)F)c2)cc1-c1cc2c(nn1)OC(C)(C)C1COCCN21 (racemic) [Example 136, rac-2-(1,1-Difluoroethyl)-N-(3-(6,6-dimethyl-6a,7,9,10-tetrahydro-6H-[1,4]oxazino[4,3-d]pyridazino[3,4-b][1,4]oxazin-2-yl)-4-methylphenyl)isonicotinamide] | 0.018
Cc1ccc(NC(=O)c2ccnc(C(F)(F)F)c2)cc1-c1cc2c(nn1)OC(C)(C)C1COCCN21 (racemic) [Example 139, rac-N-(3-(6,6-dimethyl-6a,7,9,10-tetrahydro-6H-[1,4]oxazino[4,3-d]pyridazino[3,4-b][1,4]oxazin-2-yl)-4-methylphenyl)-2-(trifluoromethyl)isonicotinamide] | 0.057
Cc1ccc(NC(=O)c2ccnc(C(C)(C)F)c2)cc1-c1cnc2c(c1)N1CCOC[C@H]1C[C@@H]2O (racemic) [Example 141, rac-cis-2-(2-fluoropropan-2-yl)-N-(3-(6-hydroxy-1,2,4,4a,5,6-hexahydro-[1,4]oxazino[4,3-a][1,5]naphthyridin-9-yl)-4-methylphenyl)isonicotinamide] | 0.0042
Cc1ccc(NC(=O)c2cncc(C(F)(F)F)c2)cc1-c1cnc2c(c1)N1CCOC[C@H]1C[C@@H]2O (racemic) [Example 144, rac-cis-N-(3-(6-hydroxy-1,2,4,4a,5,6-hexahydro-[1,4]oxazino[4,3-a][1,5]naphthyridin-9-yl)-4-methylphenyl)-5-(trifluoromethyl)nicotinamide] | 0.0023
Cc1ccc(NC(=O)c2cc(C(F)(F)F)ccn2)cc1-c1cnc2c(c1)N1CCOC[C@H]1C[C@@H]2O (racemic) [Example 147, rac-cis-N-(3-(6-hydroxy-1,2,4,4a,5,6-hexahydro-[1,4]oxazino[4,3-a][1,5]naphthyridin-9-yl)-4-methylphenyl)-4-(trifluoromethyl)picolinamide] | 0.0026
Cc1ncc(NC(=O)c2ccnc(C(C)(F)F)c2)cc1-c1cnc2c(c1)N1CCOC[C@H]1C[C@@H]2O (racemic) [Example 148, rac-cis-2-(1,1-difluoroethyl)-N-(5-(6-hydroxy-1,2,4,4a,5,6-hexahydro-[1,4]oxazino[4,3-a][1,5]naphthyridin-9-yl)-6-methylpyridin-3-yl)isonicotinamide] | 0.046
Cc1ccc(NC(=O)c2ccnc(C(C)(C)C#N)c2)cc1-c1cnc2c(c1)N1CCOC[C@H]1C[C@@H]2O (racemic) [Example 149, rac-cis-2-(2-cyanopropan-2-yl)-N-(3-(6-hydroxy-1,2,4,4a,5,6-hexahydro-[1,4]oxazino[4,3-a][1,5]naphthyridin-9-yl)-4-methylphenyl)isonicotinamide] | 0.013
Cc1ccc(NC(=O)c2ccnc(C(C)(F)F)c2)cc1-c1cnc2c(c1)N1CCOCC1C1(COC1)C2 (racemic) [Example 152, rac-2-(1,1-difluoroethyl)-N-(4-methyl-3-(2,4,4a,6-tetrahydro-1H-spiro[[1,4]oxazino[4,3-a][1,5]naphthyridine-5,3′-oxetan]-9-yl)phenyl)isonicotinamide] | 0.011
Cc1ncc(NC(=O)c2cccc(C(F)(F)F)c2)cc1-c1cnc2c(c1)N1CCOCC1C1(COC1)C2 (racemic) [Example 156, rac-N-(6-methyl-5-(2,4,4a,6-tetrahydro-1H-spiro[[1,4]oxazino[4,3-a][1,5]naphthyridine-5,3′-oxetan]-9-yl)pyridin-3-yl)-3-(trifluoromethyl)benzamide] | 0.048
Cc1ccc(NC(=O)c2ccnc(C(C)(C)C#N)c2)cc1-c1cnc2c(c1)N1CCOCC1C1(COC1)C2 (racemic) [Example 157, rac-2-(2-cyanopropan-2-yl)-N-(4-methyl-3-(2,4,4a,6-tetrahydro-1H-spiro[[1,4]oxazino[4,3-a][1,5]naphthyridine-5,3′-oxetan]-9-yl)phenyl)isonicotinamide] | 0.16
Cc1ccc(NC(=O)c2ccnc(C(C)(F)F)c2)cc1-c1cnc2c(c1)N1CCOCC1C(CO)(CO)C2 (racemic) [Example 158, rac-N-(3-(5,5-bis(hydroxymethyl)-yl)-1,2,4,4a,5,6-hexahydro-[1,4]oxazino[4,3-a][1,5]naphthyridin-9-yl)-4-methylphenyl)-2-(1,1-difluoroethyl)isonicotinamide] | 0.01
Cc1ccc(NC(=O)c2cc(C(F)(F)F)ccn2)cc1-c1cnc2c(c1)N1CCOCC1C(CO)(CO)C2 (racemic) [Example 159, rac-N-(3-(5,5-bis(hydroxymethyl)-1,2,4,4a,5,6-hexahydro-[1,4]oxazino[4,3-a][1,5]naphthyridin-9-yl)-4-methylphenyl)-4-(trifluoromethyl)picolinamide] | 0.0068
Cc1ccc(NC(=O)c2ccnc(C(C)(F)F)c2)cc1-c1cnc2c(c1)N1CCOC[C@H]1C(C)(C)[C@@H]2O (racemic) [Example 160, rac-cis-2-(1,1-difluoroethyl)-N-(3-(6-hydroxy-5,5-dimethyl-1,2,4,4a,5,6-hexahydro-[1,4]oxazino[4,3-a][1,5]naphthyridin-9-yl)-4-methylphenyl)isonicotinamide] | 0.027
Cc1ccc(NC(=O)c2ccnc(C(C)(F)F)c2)cc1-c1cnc2c(c1)N1CCOC[C@H]1C(F)(F)[C@@H]2O (racemic) [Example 163, rac-cis-N-(3-(5,5-difluoro-6-hydroxy-1,2,4,4a,5,6-hexahydro-[1,4]oxazino[4,3-a][1,5]naphthyridin-9-yl)-4-methylphenyl)-2-(1,1-difluoroethyl)isonicotinamide] | 0.02
